Test results from ChEMBL document CHEMBL1857833, “Screening and optimization of specific chemical series against human African Trypanosomiasis (HAT)”.
≈ marks a conversion by molar mass, not a printed value.

How the values were obtained:
[1] = DNDI: Cytotoxicity against L929 mouse fibroblasts, 72 hour.; assay type: toxicity, cell-based; conditions: mouse, L929 mouse fibroblasts
Trypanosoma brucei = test: DNDI: Inhibition of Human African Trypanosomiasis, SBRI 427, in vitro; assay type: functional, organism-based
[2] = Trypanosoma brucei, SBRI 427, read-out: IC50

SMILES	IC50 (Trypanosoma brucei; [2]) [mg/L]	IC50 (Trypanosoma brucei) [mg/L]	IC50 at 72 h [1] [mg/L]
CCCCCC(C)NCc1coc(-c2ccc([N+](=O)[O-])cc2)n1 (stereo not drawn)	4.99 (≈ 15.7 µM)		7.08 (≈ 22.3 µM)
CCCCCCC/C(O)=C1\C(=O)NC(CC(C)C)C1=O (stereo not drawn)	> 5		> 10
CCCCCCCCOC(=O)Cc1coc(-c2ccc(CCCC)cc2)n1	> 5		> 10
Fc1ccc(Oc2nc(Cl)nc3ccsc23)cc1	> 5		> 10
CN(C)CC(C)(C)CNc1cc(-c2ccccc2)nc2cc(-c3ccc(F)cc3)nn12	> 5		> 10
C/C(O)=C1/C(=O)CN(C)C1=O	> 5		> 10
CCC(C)Oc1ccc(-c2nc(CNCCCN(C)C)co2)cc1 (stereo not drawn)	> 5		> 10
CCCCc1ccc(-c2nc(CNCc3ccccc3)co2)cc1	1.32 (≈ 4.12 µM)		3.29 (≈ 10.3 µM)
CCCCc1ccc(-c2nc(COCC)co2)cc1	> 5		> 10
C/C(O)=C1\C(=O)NC(COCc2ccccc2)C1=O (stereo not drawn)	> 5		> 10
COc1ccc(/C(=N/O)Nc2cccc(C(C)(C)C)c2)cc1			3.91 (≈ 13.1 µM)
COc1ccc(/C(=N/O)Nc2cccc(C)c2)cc1			> 10
O/N=C(/c1ccnc(Oc2cccc3c2CCCC3)c1)N1CCSCC1	> 5		
Cc1cc(C)cc(CN/C(=N\O)c2cccnc2OCc2ccccc2F)c1	1.96 (≈ 5.17 µM)		
CCCC(CCC)NCc1coc(-c2ccccc2OCC)n1	1.76 (≈ 5.56 µM)		
Cc1cc(C)cc(CN/C(=N\O)c2ccc(C)nc2OCc2ccccn2)c1	2.79 (≈ 7.41 µM)		
CCOc1ccccc1-c1nc(CNC(C)C(C)(C)C)co1 (stereo not drawn)	2.12 (≈ 7.01 µM)		
CCOc1ccc(-c2nc(CNC(C)C3CCCCC3)co2)cc1 (stereo not drawn)	1.44 (≈ 4.38 µM)	1.96 (≈ 5.97 µM)	
CSc1ccc(Oc2nc(C)ccc2/C(=N/O)NC2CCCC2)cc1C	0.96 (≈ 2.58 µM)		
O/N=C(\NC1CCc2ccccc21)c1cccnc1Oc1ccc2ccccc2c1 (stereo not drawn)	1.47 (≈ 3.72 µM)		

SMILES	IC50 (Trypanosoma brucei; [2]) [mg/L]	IC50 (Trypanosoma brucei) [mg/L]	IC50 at 72 h [1] [mg/L]
CCOc1ccccc1-c1nc(CNC(C)C2CCCCC2)co1 (stereo not drawn)	1.94 (≈ 5.91 µM)		
Cc1ccc([C@@H](C)NCc2coc(-c3cccc4ccccc34)n2)cc1	1.86 (≈ 5.43 µM)		
COc1ccc(Oc2ncccc2/C(=N/O)NCC2CCCCC2)cc1	1.96 (≈ 5.51 µM)		
O/N=C(\NCc1cccs1)c1cccnc1Oc1ccc2oc3ccccc3c2c1	2.45 (≈ 5.9 µM)		
O/N=C(\NC1CCCC1)c1cccnc1Oc1ccccc1F	18.2 (≈ 57.8 µM)		
O/N=C(\NCC1CC1)c1cccnc1Oc1ccc(F)cc1	1.23 (≈ 4.08 µM)		
CCOc1ccc(-c2nc(Cn3nc(N)cc3C)co2)cc1	2.11 (≈ 7.07 µM)		
CCOc1ccccc1-c1nc(CNC2CCCCCCCCCCC2)co1	1.51 (≈ 3.93 µM)	1.37 (≈ 3.56 µM)	
C[C@H]1C(NCc2coc(-c3cccs3)n2)C[C@@H]2C[C@H]1C2(C)C (stereo partly drawn)	2.27 (≈ 7.17 µM)		
C[C@@H]1C(NCc2coc(-c3ccccc3Br)n2)C[C@H]2C[C@@H]1C2(C)C (stereo partly drawn)	1.22 (≈ 3.13 µM)	1.95 (≈ 5.01 µM)	
C[C@H]1C(NCc2coc(-c3cccc(F)c3)n2)C[C@@H]2C[C@H]1C2(C)C (stereo partly drawn)	1.56 (≈ 4.75 µM)		
Cc1ccc(Oc2nc(C)ccc2/C(=N/O)NC2CCCC2)cc1	6.96 (≈ 21.4 µM)		
CC(NCc1coc(-c2cccc3ccccc23)n1)C1CCCCC1 (stereo not drawn)	1.34 (≈ 4.01 µM)	1.7 (≈ 5.08 µM)	
Cc1ccc(/C(=N/O)NCCN2CCCC2)c(Oc2ccc(F)cc2)n1	37.5 (≈ 105 µM)		
O/N=C(\NCc1c(F)cccc1F)c1cccnc1Oc1ccc(F)cc1	2.18 (≈ 5.84 µM)		
CC1CCCCN1CCCNCc1coc(-c2cccc3ccccc23)n1 (stereo not drawn)	2.07 (≈ 5.69 µM)		
Cc1ccc(-c2nc(CN(Cc3ccccn3)Cc3ccccn3)co2)cc1	> 5		
COc1ccc(Oc2ncccc2/C(=N/O)NCc2cc(C)cc(C)c2)cc1	2.32 (≈ 6.15 µM)		
Cc1ccc(-c2nc(Cn3nc(N)cc3C)co2)cc1	> 5		
CCN(CCN(C)C)Cc1coc(-c2ccc(C(C)(C)C)cc2)n1	3.09 (≈ 9.38 µM)	1.87 (≈ 5.68 µM)	

SMILES	IC50 (Trypanosoma brucei; [2]) [mg/L]	IC50 (Trypanosoma brucei) [mg/L]	IC50 at 72 h [1] [mg/L]
COc1ccc(Oc2ncccc2/C(=N/O)NCc2ccccc2C)cc1	2.36 (≈ 6.49 µM)		
C[C@@H]1C(NCc2coc(-c3cccc(F)c3)n2)C[C@H]2C[C@@H]1C2(C)C (stereo partly drawn)	1.18 (≈ 3.59 µM)		
COc1cccc(-c2nc(Cn3ccnc3C=O)co2)c1	> 5		
COc1ccc(-c2nc(CNC3CCN(Cc4ccccc4)CC3)co2)cc1	2.92 (≈ 7.74 µM)		
CC(C)COc1ncccc1/C(=N/O)NC1CCCCC1	2.18 (≈ 7.48 µM)		
O/N=C(\NCC1CCCCC1)c1ccnc(Oc2cccc3c2CCCC3)c1	5 (≈ 13.2 µM)		
c1ccc2c(-c3nc(CNCCCN4CCCC4)co3)cccc2c1	0.62 (≈ 1.85 µM)		
COc1ccc(Oc2ncccc2/C(=N/O)NCc2ccccc2OC)cc1	2.37 (≈ 6.25 µM)		
Cc1ccc(/C(=N/O)N(C)c2ccccc2)c(Oc2cccc(F)c2)n1	1.34 (≈ 3.81 µM)		
CC(C)c1cccc(Oc2cc(/C(=N/O)N3CCN(c4ccccc4)CC3)ccn2)c1	2.91 (≈ 6.99 µM)		
Cc1ccc(Oc2ncccc2/C(=N/O)NCc2c(F)cccc2F)cc1	1.75 (≈ 4.74 µM)		
O/N=C(\NCC1CCCCC1)c1cccnc1Oc1ccc(-n2cncn2)cc1	0.59 (≈ 1.5 µM)		
COc1ccc(Oc2nc(C)ccc2/C(=N/O)NC2CCCC2)cc1	1.33 (≈ 3.9 µM)		
CCN(CC)CCCNCc1coc(-c2cccc(C)c2)n1	3.36 (≈ 11.1 µM)		
Cc1cccc(Oc2nc(C)ccc2/C(=N/O)NC2CCCCC2)c1	1.24 (≈ 3.65 µM)		
O/N=C(\NCC1CC1)c1cccnc1OCc1ccccc1	0.61 (≈ 2.05 µM)		
COc1ccc(Oc2ncccc2/C(=N/O)NC2CCc3ccccc32)cc1 (stereo not drawn)	1.51 (≈ 4.02 µM)		
COc1ccc(-c2nc(CNCCCN3CCCCC3C)co2)cc1 (stereo not drawn)	> 5		
COc1cc(C)ccc1Oc1nc(C)ccc1/C(=N/O)NCc1ccccc1	0.77 (≈ 2.04 µM)		
CC(C)(C)CNCc1coc(-c2ccc(C(C)(C)C)cc2)n1	1.62 (≈ 5.39 µM)	2.86 (≈ 9.52 µM)	

The next lines start with results.

IC50 (Trypanosoma brucei; [2]) [mg/L]	IC50 (Trypanosoma brucei) [mg/L]	SMILES	IC50 at 72 h [1] [mg/L]
0.36 (≈ 1.07 µM)		COCC(C)N/C(=N\O)c1ccnc(Oc2ccc(Cl)cc2)c1 (stereo not drawn)	
2.11 (≈ 6.11 µM)		Cc1ccc(/C(=N/O)NCC(C)(C)C)c(OCc2cccc(F)c2)n1	
4.25 (≈ 14.8 µM)		O/N=C(\NC1CC1)c1cccnc1Oc1ccccc1F	
0.31 (≈ 0.882 µM)		O/N=C(\NC1CCCC1)c1ccc(Oc2cccc3c2CCCC3)nc1	
1.24 (≈ 3.21 µM)		O/N=C(/c1ccc(Oc2ccc(Cl)cc2)nc1)N1CCC2CCCCC2C1 (stereo not drawn)	
2.99 (≈ 7.37 µM)		CCOc1ccccc1CN/C(=N\O)c1ccc(C)nc1Oc1ccc(C)cc1C	
> 5		C=CCc1ccc(Oc2cc(/C(=N/O)NCc3ccc(OC)cc3)ccn2)c(OC)c1	
0.41 (≈ 1.19 µM)		CCC(CC)N/C(=N\O)c1cccnc1Oc1ccccc1SC	
4.78 (≈ 15.3 µM)		COc1ccc(Oc2cc(/C(=N/O)NC3CCC3)ccn2)cc1	
> 5		Cc1cc(Oc2ccc(/C(=N/O)N3CCCC3C)cn2)cc(C(C)C)c1 (stereo not drawn)	
2.94 (≈ 8.82 µM)		O/N=C(\NC1CCCC1)c1ccnc(Oc2ccc(F)c(F)c2)c1	
0.86 (≈ 2.46 µM)		CCC(C)(C)N/C(=N\O)c1ccc(Oc2cccc3ccccc23)nc1	
0.53 (≈ 1.57 µM)		O/N=C(\NCC1CC1)c1ccc(Oc2cccc3c2CCCC3)nc1	
2.15 (≈ 6.05 µM)		COc1cccc(Oc2ccc(/C(=N/O)NCC3CCCCC3)cn2)c1	
1.6 (≈ 4.45 µM)		O/N=C(\NCC1CCCCC1)c1ccc(Oc2ccc(Cl)cc2)nc1	
> 5		Cc1ccc(/C(=N/O)NCC2CCCO2)c(Oc2cc(Cl)ccc2Cl)n1 (stereo not drawn)	
1.35 (≈ 3.67 µM)		CCC(CC)N/C(=N\O)c1ccc(Oc2cc(Cl)ccc2Cl)nc1	
> 5		O/N=C(\NC1CCCCC1)c1ccc(Oc2ccc3ccccc3c2)nc1	
3.98 (≈ 9.21 µM)		COc1ccccc1CN/C(=N\O)c1ccc(C)nc1Oc1cc(Cl)ccc1Cl	
1.93 (≈ 5.62 µM)		O/N=C(\NCc1cccs1)c1ccc(Oc2cccc(F)c2)nc1	
3.79 (≈ 10.4 µM)		O/N=C(\NC1CCCCC1)c1ccnc(Oc2ccc(F)c(Cl)c2)c1	
0.4 (≈ 1.05 µM)		Cc1ccc(/C(=N/O)NC2CCCC2)c(Oc2cc(Cl)ccc2Cl)n1	
2.73 (≈ 7.76 µM)		CC(C)(C)CN/C(=N\O)c1ccnc(Oc2ccc(F)c(Cl)c2)c1	
0.35 (≈ 1.12 µM)		COc1ccccc1Oc1ncccc1/C(=N/O)NCC1CC1	
> 5		CN(/C(=N\O)c1ccnc(Oc2ccc(F)c(Cl)c2)c1)C1CCCCC1	
2.36 (≈ 7.21 µM)		CCC(C)(C)N/C(=N\O)c1ccc(Oc2cc(C)cc(C)c2)nc1	

IC50 (Trypanosoma brucei; [2]) [mg/L]	IC50 (Trypanosoma brucei) [mg/L]	SMILES	IC50 at 72 h [1] [mg/L]
2.13 (≈ 5.35 µM)		CCOc1ccccc1CN/C(=N\O)c1cccnc1Oc1ccc(Cl)cc1	
0.36 (≈ 1.1 µM)		Cc1ccc(Oc2cc(/C(=N/O)NCC(C)(C)C)ccn2)c(C)c1	
2.4 (≈ 6.94 µM)		O/N=C(\NC1CCCCC1)c1ccnc(Oc2ccc(Cl)cc2)c1	
0.51 (≈ 1.63 µM)		CCC(CC)N/C(=N\O)c1cccnc1OCc1ccccc1	
10.8 (≈ 29.6 µM)		O/N=C(\NC1CCCC1)c1ccnc(Oc2cc(Cl)ccc2Cl)c1	
4.06 (≈ 10.6 µM)		O/N=C(\NC1CCCCC1)c1ccc(Oc2c(F)c(F)cc(F)c2F)nc1	
1.6 (≈ 4.11 µM)		CCC(C)(C)N/C(=N\O)c1ccc(Oc2ccc3oc4ccccc4c3c2)nc1	
1.35 (≈ 3.63 µM)		CSc1ccc(Oc2ccc(/C(=N/O)NC3CCC(C)CC3)cn2)cc1 (stereo not drawn)	
1.3 (≈ 3.42 µM)		O/N=C(\NC1CCCCC1)c1ccc(Oc2cc(Cl)ccc2Cl)nc1	
> 5		O/N=C(\NC1CCCCC1)c1ccnc(Oc2ccc(F)c(F)c2)c1	
5 (≈ 15.1 µM)		O/N=C(\NC1CCCC1)c1ccnc(Oc2ccc(Cl)cc2)c1	
3.65 (≈ 11.1 µM)		CCC(CC)N/C(=N\O)c1ccnc(Oc2ccc(OC)cc2)c1	
4.81 (≈ 14.2 µM)		CSCCN/C(=N\O)c1cccnc1Oc1c(F)cccc1F	
3.35 (≈ 8.76 µM)		CCC(CC)N/C(=N\O)c1ccc(C)nc1Oc1cc(Cl)ccc1Cl	
0.45 (≈ 1.36 µM)		Cc1ccc(/C(=N/O)NCC(C)(C)C)c(Oc2cccc(F)c2)n1	
1.32 (≈ 3.98 µM)		O/N=C(\NC1CCCC1)c1ccc(Oc2ccc(Cl)cc2)nc1	
4.8 (≈ 14.6 µM)		COc1ccc(Oc2cc(/C(=N/O)NCC(C)(C)C)ccn2)cc1	
1.37 (≈ 4.32 µM)		Cc1ccc(/C(=N/O)NCC(C)C)c(Oc2cccc(F)c2)n1	
2.17 (≈ 6.59 µM)		CCc1ccc(Oc2ncccc2/C(=N/O)NC(C)COC)cc1 (stereo not drawn)	
2.81 (≈ 7.13 µM)		O/N=C(\NCC1CCCCC1)c1ccc(Oc2cc(Cl)ccc2Cl)nc1	
0.62 (≈ 1.67 µM)		O/N=C(\NCc1ccccc1)c1cccnc1Oc1ccc(F)cc1Cl	
2.5 (≈ 6.64 µM)		CC(C)c1cccc(Oc2ccc(/C(=N/O)N(C)Cc3cccnc3)cn2)c1	
4.86 (≈ 12.4 µM)		Cc1ccc2cccc(Oc3cc(/C(=N/O)NC4CCC(C)CC4)ccn3)c2n1 (stereo not drawn)	
2.99 (≈ 8.71 µM)		CSc1ccccc1Oc1ncccc1/C(=N/O)NC1CCCC1	
0.43 (≈ 1.35 µM)		CCC(CC)N/C(=N\O)c1cccnc1Oc1ccccc1F	
> 5		COCCN/C(=N\O)c1ccc(C)nc1Oc1ccc(SC)c(C)c1	
